Literature values as cited in patent US20100189771A1, “FIXED RATIO DRUG COMBINATION TREATMENTS FOR SOLID TUMORS” (priority 2005, published 2010).
Where two headings read alike, the source gives them in different places.

Details: conventional irinotecan

## CCc1c2c(nc3ccc(OC(=O)N4CCC(N5CCCCC5)CC4)cc13)-c1cc3c(c(=O)n1C2)COC(=O)[C@]3(O)CC [Irinotecan, irinotecan]
Dose 240 mg/m^2, N=3
  IRINOTECAN AUC: 18,091 ng-h/ml
Dose 240 mg/m^2, N=3, patients' plasma
  IRINOTECAN Cmax: 2,810 ng/ml
Dose 340 mg/m^2, N=6
  IRINOTECAN AUC: 22,998 ng-h/ml
  IRINOTECAN Cmax: 3,392 ng/ml
